Measured values published in ChEMBL document CHEMBL1201862, “PubChem BioAssay data set” (2004).
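Tested at 5 concentrations; 48 h exposure; 96-well plates; endpoints linearly interpolated, else capped at highest concentration. At the GI50, growth is halved.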 Calls of active or inactive are those of the source. No stated cut-off is given here; in the data, active = GI50 up to about 1.1 µM and inactive = higher.

How the values were obtained:
Experiment in all cases: inhibition of tumour cell growth, NCI panel, 48 h
SK-OV-3 = test system: SK-OV-3
786-0 = test system: 786-0
SN12C = test system: SN12C
DU-145 = test system: DU-145
BT-549 = test system: BT-549
NCI-H226 = test system: NCI-H226
HCT-116 = test system: HCT-116
SW-620 = test system: SW-620
HOP-62 = test system: HOP-62
K562 = test system: K562
SK-MEL-28 = test system: SK-MEL-28
OVCAR-3 = test system: OVCAR-3
HL-60 = test system: HL-60
SNB-19 = test system: SNB-19
MOLT-4 = test system: MOLT-4
MDA-N = test system: MDA-N
CAKI-1 = test system: CAKI-1
TK-10 = test system: TK-10
Hs-578T = test system: Hs-578T
SK-MEL-5 = test system: SK-MEL-5

Measured: GI50

CC(=O)Nc1ccc(S(=O)(=O)N=S(C)C)cc1
inactive: SK-OV-3 > 100 µM | 786-0 > 100 µM | SN12C > 100 µM | DU-145 > 100 µM | BT-549 > 100 µM | NCI-H226 > 100 µM | HCT-116 > 100 µM | SW-620 > 100 µM | HOP-62 > 100 µM | K562 > 100 µM | SK-MEL-28 > 100 µM | OVCAR-3 > 100 µM | HL-60 > 100 µM | SNB-19 > 100 µM | MOLT-4 > 100 µM | MDA-N > 100 µM | CAKI-1 > 100 µM | TK-10 > 100 µM | Hs-578T > 100 µM

COC(=O)/C=C1/OC(c2ccccc2)=CC1=O
inactive: SK-OV-3 17.5 µM | 786-0 14.5 µM | SN12C 19 µM | DU-145 13.7 µM | BT-549 17.7 µM | NCI-H226 24.6 µM | HCT-116 15.9 µM | SW-620 16.1 µM | HOP-62 21.6 µM | K562 12 µM | SK-MEL-28 19.9 µM | OVCAR-3 17.9 µM | HL-60 2.24 µM | SNB-19 17.3 µM | SK-MEL-5 19.9 µM | MOLT-4 6.38 µM | MDA-N 17.3 µM | CAKI-1 19.4 µM | TK-10 18.6 µM | Hs-578T 22.9 µM

C1CSCCSCCCSCCSCCCSCCSCCCSCCSC1
inactive: SK-OV-3 > 100 µM | 786-0 > 100 µM | SN12C > 100 µM | DU-145 > 100 µM | BT-549 > 100 µM | NCI-H226 > 100 µM | HCT-116 62.8 µM | SW-620 > 100 µM | HOP-62 > 100 µM | K562 > 100 µM | SK-MEL-28 > 100 µM | OVCAR-3 > 100 µM | HL-60 > 100 µM | SNB-19 > 100 µM | SK-MEL-5 > 100 µM | MOLT-4 > 100 µM | MDA-N > 100 µM | CAKI-1 > 100 µM | TK-10 > 100 µM | Hs-578T > 100 µM

CC(=O)C1(/N=N/c2ccc(S(N)(=O)=O)cc2)CCOC1=O (configuration not stated)
inactive: SK-OV-3 > 100 µM | 786-0 > 100 µM | SN12C > 100 µM | DU-145 > 100 µM | BT-549 > 100 µM | NCI-H226 > 100 µM | HCT-116 > 100 µM | SW-620 > 100 µM | HOP-62 > 100 µM | SK-MEL-28 > 100 µM | OVCAR-3 > 100 µM | HL-60 64.6 µM | SNB-19 > 100 µM | SK-MEL-5 > 100 µM | MDA-N > 100 µM | CAKI-1 > 100 µM | TK-10 > 100 µM | Hs-578T > 100 µM

N#CC(C#N)=C1C(C#N)=C(N)NC12OCCO2
inactive: SK-OV-3 > 100 µM | 786-0 > 100 µM | SN12C > 100 µM | DU-145 > 100 µM | BT-549 > 100 µM | NCI-H226 > 100 µM | HCT-116 > 100 µM | SW-620 > 100 µM | HOP-62 > 100 µM | K562 > 100 µM | SK-MEL-28 > 100 µM | HL-60 > 100 µM | SNB-19 > 100 µM | SK-MEL-5 > 100 µM | MOLT-4 > 100 µM | MDA-N > 100 µM | CAKI-1 > 100 µM | TK-10 > 100 µM | Hs-578T > 100 µM

COc1cc(/N=C\N(C)C)c2ncccc2c1
inactive: SK-OV-3 > 100 µM | 786-0 81.3 µM | SN12C > 100 µM | DU-145 > 100 µM | BT-549 37.1 µM | NCI-H226 49.4 µM | HCT-116 35.2 µM | HOP-62 > 100 µM | K562 15.8 µM | SK-MEL-28 > 100 µM | OVCAR-3 56.6 µM | HL-60 26.8 µM | SNB-19 > 100 µM | SK-MEL-5 52.1 µM | MOLT-4 35.7 µM | MDA-N 20.4 µM | CAKI-1 86.3 µM | TK-10 > 100 µM | Hs-578T 98.4 µM

CC(C)=CCc1c(O)c(CC=C(C)C)c2oc(-c3ccc(O)cc3O)c(CC=C(C)C)c(=O)c2c1O
inactive: SK-OV-3 13.3 µM | 786-0 8.91 µM | SN12C 8.59 µM | DU-145 12.4 µM | BT-549 7.98 µM | NCI-H226 23 µM | HCT-116 4.97 µM | SW-620 6.1 µM | HOP-62 9.06 µM | K562 4.05 µM | SK-MEL-28 12.2 µM | OVCAR-3 7.1 µM | HL-60 7.06 µM | SNB-19 12.6 µM | SK-MEL-5 10.8 µM | MOLT-4 3.33 µM | MDA-N 7.82 µM | CAKI-1 12.7 µM | TK-10 8.85 µM | Hs-578T 7.76 µM

CC12Nc3c(Cl)cc(Cl)cc3N1C(=O)c1ccccc12 (configuration not stated)
inactive: SK-OV-3 > 100 µM | 786-0 > 100 µM | SN12C > 100 µM | DU-145 > 100 µM | BT-549 71.6 µM | NCI-H226 68.7 µM | HCT-116 > 100 µM | SW-620 > 100 µM | HOP-62 > 100 µM | K562 > 10 µM | SK-MEL-28 > 100 µM | OVCAR-3 > 100 µM | HL-60 51.6 µM | SK-MEL-5 > 100 µM | MOLT-4 58.7 µM | MDA-N > 100 µM | CAKI-1 > 100 µM | TK-10 42.2 µM | Hs-578T 48 µM

CSc1c(C#N)c(N)n(-c2ccc(C)cc2)c(=O)c1C#N
inactive: SK-OV-3 > 100 µM | 786-0 > 100 µM | SN12C > 100 µM | DU-145 > 100 µM | BT-549 > 100 µM | NCI-H226 70 µM | HCT-116 > 100 µM | SW-620 > 100 µM | K562 > 100 µM | SK-MEL-28 > 100 µM | OVCAR-3 > 100 µM | HL-60 > 100 µM | SNB-19 > 100 µM | SK-MEL-5 > 100 µM | MOLT-4 > 100 µM | MDA-N > 100 µM | CAKI-1 > 100 µM | TK-10 > 100 µM | Hs-578T > 100 µM

CC(C)C1=CC2=C(C(=O)C1=O)C13CCCC(C)(C)C1CC2OC3=O (configuration not stated)
inactive: SK-OV-3 59.3 µM | 786-0 17.9 µM | SN12C 21.4 µM | DU-145 18.8 µM | BT-549 16.8 µM | NCI-H226 18.6 µM | HCT-116 18.3 µM | SW-620 14.5 µM | K562 3.64 µM | SK-MEL-28 14.1 µM | OVCAR-3 16.7 µM | HL-60 15.1 µM | SNB-19 42.9 µM | SK-MEL-5 25.2 µM | MOLT-4 6.11 µM | MDA-N 17.9 µM | CAKI-1 17.9 µM | TK-10 14.8 µM | Hs-578T 34.4 µM
